According to patent publication US20040082550A1, “Tropolone derivative” (priority 2000, published 2004):

Legend:
[1] = tested on: promyelocyte leukemia cell strain HL-60; experiment: Test for induction of cell differentiation in HL-60 cells (NBT reduction ability); format: cell-based; details: for Ratio of cells for which differentiation was induced by each compound alone (%): calculated from NBT reduction ability; for Ratio of cells for which differentiation was induced by each compound in combination with 1 × 10^−7 M of HX630 (%): in combination with 1×10^−7 M HX630 (retinoid synergist)
Method: For each of the compounds of the examples, action for inducing cell differentiation was examined for each alone and in combination with 1×10^−7 M of HX630. According to the methods described in Japanese Patent Unexamined Publication (KOKAI) No. (Sho)61-76440/1986, differentiation of the cells of promyelocyte leukemia cell strain HL-60 into granulocytic series cells was determined based on morphological change and measurement of ability to reduce nitro blue tetrazolium (NBT). The ratios (%) of differentiated cells shown in the following table are those calculated from NBT reduction ability. HX630 is a retinoid synergist that enhances actions of retinoids, and the concentrations of −8, −7 and −6 mean that each compound was added at concentrations of 1×10^−8 M, 1×10^−7 M and 1×10^−6 M, respectively.

[2] = compound concentration -6 (1×10^−6 M)
[3] = compound concentration -7 (1×10^−7 M)
[4] = compound concentration -8 (1×10^−8 M)

| Compound | melting point [°C] | Ratio of cells for which differentiation was induced by each compound alone (%) ([1]; concentration -6 (1×10^−6 M)) | Ratio of cells for which differentiation was induced by each compound alone (%) ([1]; concentration -7 (1×10^−7 M)) | Ratio of cells for which differentiation was induced by each compound alone (%) ([1]; concentration -8 (1×10^−8 M)) | Ratio of cells for which differentiation was induced by each compound in combination with 1 × 10^−7 M of HX630 (%) [1, 2] [%] | Ratio of cells for which differentiation was induced by each compound in combination with 1 × 10^−7 M of HX630 (%) [1, 3] [%] | Ratio of cells for which differentiation was induced by each compound in combination with 1 × 10^−7 M of HX630 (%) [1, 4] [%] |
| --- | --- | --- | --- | --- | --- | --- | --- |
| CC1(C)CCC(C)(C)c2cc(-c3ccc(O)c(=O)cc3)ccc21 [Tp05] | 161 | 13 | 0.5 | 0.6 | 35 | 1.2 | 1.2 |
| COc1ccc(C(=O)Nc2ccc(O)c(=O)cc2)cc1C12CC3CC(CC(C3)C1)C2 [Tp88] | 142 | 46 | 1.2 | 0.9 | 62 | 14 | 2.6 |
| CC1(C)CCC(C)(C)c2cc(NC(=O)Nc3ccc(O)c(=O)cc3)ccc21 [Tp30] | – | 1.2 | 1.5 | 1.3 | 20 | 2.3 | 2.5 |
| CC1(C)CCC(C)(C)c2cc(C=CC(=O)Nc3ccc(O)c(=O)cc3)ccc21 [Tp90] | – | 67 | 0.9 | 0.7 | 43 | 2.1 | 1.5 |
| CC1(C)CCC(C)(C)c2cc(S(=O)(=O)Nc3ccc(O)c(=O)cc3)ccc21 [Tp40] | – | 2.3 | 0.9 | 1.3 | 2 | 2.5 | 1.8 |
| COc1ccc(C#Cc2ccc3c(c2)C(C)(C)CCC3(C)C)ccc1=O [Tp141] | – | 6.4 | 3.3 | 2.2 | 84 | 7 | 4.1 |
| O=C(Nc1ccc(O)c(=O)cc1)c1cc(C(F)(F)F)cc(C(F)(F)F)c1 [Tp60] | – | 2.1 | 1.3 | 0.8 | 37.8 | 21.2 | 2.2 |
| CC1(C)CCC(C)(C)c2cc(Nc3ccc(O)c(=O)cc3)ccc21 [Tp10] | – | 3.3 | 2.9 | 6.8 | 5.6 | 2.9 | 3 |
